Reference: US5846944A (priority 1997, dated 1998)
Read-outs that look alike come from different tables or passages of the source.

Tests used:
[1] = system: hypercholesterolemic atherosclerosis, New Zealand White rabbits; settings: cited from earlier work
[2] = Body weight of hypercholesterolemic rabbits (Example 1); assay type: in vivo, New Zealand white rabbits
Method: (§1) Experiments were carried out on six to eight week old female New Zealand white rabbits weighing between 1.8 and 2.0 kg. All procedures relating to the care and welfare of test animals within this experimental protocol conformed to a Standard Operating Procedure (SOP) approved by the Council on Animal Care, University of Saskatchewan, Saskatoon, Saskatchewan, Canada.
(§2) Blood samples for measurement of triglycerides (TG), total cholesterol (TC), low density lipoprotein cholesterol (LDL-C), very-low density lipoprotein cholesterol (VLDL-C), and high density lipoprotein cholesterol (HDL-C) were taken before the animals were assigned to the experimental diet (T=0), and after 1 (T=1) and 2 months (T=2) on the experimental diet. The rabbits were sacrificed under pentabarbital anesthesia at the end of 2 months. The aorta was removed for the assessment of atherosclerotic plaques.
(§3) Much has been made of the importance of the composition of certain dietary fats toward health, particularly in relation to the degree of saturation of the fatty acid composition of the triglycerides.

[3] = system: diabetes mellitus, BBdp rats; experiment: Spontaneously developing IDDM in diabetic prone BB (BBdp) rats (Example 5); assay type: in vivo; settings: SDG 22 mg/kg daily
Method: Two animal models of IDDM used were: streptozotocin-induced and diabetic prone (dp) BB rats (BBdp). The Zucker diabetic fatty rat (ZDF), an animal model closely resembling human NIDDM, was used for NIDDM.
BBdp rats develop diabetes melliuts spontaneously. […] Serum malondialdehyde (MDA) a measure of levels of oxygen radicals, and antioxidant reserve [pancreatic-chemiluminescence (Pancreatic-CL)] were assessed in blood and pancreas. Male 35-day old BBdp and age matched nondiabetic prone BE (BBn) rats were obtained from Animal Resources Division, Health Protection Branch (Ottawa, Canada).
Two rats from BBn and 4 rats from BBdp at the age of 35 days were sacrificed to measure serum glucose and MDA, and pancreatic MDA and antioxidant reserve. […] Diagnosis of diabetes mellitus was established by testing for the presence of glucosuria which was done every altenate day for 120 days or until glucosuria appeared. Once they developed diabetes or at the end of 120 days rats were anesthetized with nembutal sodium. Blood samples were taken to measure serum glucose and MDA, and pancreas were removed to assess pancreatic MDA and antioxidant reserve. None of the BBdp rats tested positive for glucosuria at 5 weeks and at that age the serum glucose in BBn and BBdp rats were 8.75±0.63 and 10.03±0.65 mmoles/L respectively.

[4] = system: hypercholesterolemic atherosclerosis, New Zealand White rabbits; experiment: Comparison with other compounds: hypercholesterolemic atherosclerosis and total cholesterol in rabbits; assay type: in vivo; settings: compared with Vitamin E
Description: The effect of Probucol on reducing atherosclerosis varied between 15-45%, depending upon the extent of the hypercholesterolemia.
The mechanism of action for Vitamin E is now generally accepted as preventing the development of hypercholesterolemic atherosclerosis through its antioxidant activity and its ability to scavenge free radicals in the bloodstream.

[5] = system: Atherosclerotic plaques, New Zealand White rabbits; experiment: Development of atherosclerotic plaques in rabbits on experimental diets (Example 1); assay type: in vivo; settings: control diet without cholesterol; flaxseed 15% of diet or SDG 15 mg/kg oral; 2 months
Method: as §1, §2, §3

[6] = system: New Zealand white rabbits; experiment: Serum lipids in rabbits (Example 4); assay type: in vivo; settings: + 1% cholesterol
Method: as §1, §2

[7] = system: New Zealand white rabbits; experiment: Serum lipids (TC, LDL-C, VLDL-C, HDL-C, triglycerides) in rabbits on experimental diets (Example 1); assay type: in vivo
Method: as §1
as §2, with “plaques. […]” for “plaques.”

[8] = system: endotoxic shock, anesthetized dogs; experiment: Endotoxic-shock-induced changes in cardiovascular function, contractility, MDA and antioxidant reserve in anesthetized dogs (Example 2); assay type: in vivo; settings: SDG 10 mg/kg i.v. 15 min prior to endotoxin 5 mg/kg i.v.
Method: The dogs were divided into three groups. Group I, (sham 3 hours, n=5). Group II, (ET, n=9), these dogs received endotoxin (5 mg/kg, intravenously). […] Mean aortic blood pressure (mAo), cardiac index (CI) a measure of cardiac function, and cardiac contractility (dp/dt at CPIP/PAW) were measured before (0 min) and at 30 min, 60 min, 90 min, 120 min and 180 min after endotoxin administration. At the end of 3 hours of experiment heart was removed for measurement of MDA and antioxidant reserve. Cardiac function and contractility were measured. Left ventricular MDA (LV-MDA) and left ventricular chemiluminescence (LV-CL) a measure of antioxidant reserve were also estimated.

[9] = system: streptozotocin-induced diabetes mellitus, Sprague-Dawley rats; experiment: Streptozotocin-induced diabetes mellitus in rats (Example 3); assay type: in vivo; settings: for Plasma Glucose: mean + S.E., P<0.05 vs Group I and vs Group II
Method: Experimental diabetes mellitus was produced in Sprague-Dawley rats by injecting streptozotocin (STZ, 65 mg/kg) intravenously. Diagnosis of diabetes mellitus was established by testing for the presence of glucosuria with Ames Multi Stix (Miles Canada Inc., Etobicoke, Ontario) on the 3rd day after streptozotocin administration. The rats were divided into 4 groups.

[10] = system: NIDDM, Zucker diabetic fatty rat (ZDF); experiment: NIDDM in Zucker diabetic fatty rats (Example 5); assay type: in vivo; settings: SDG 22 mg/kg daily orally in drinking water; two rats examined; two untreated rats showed clear signs
Method: Oxidative stress was assessed by measuring lipid peroxidation product malondialdehyde (MDA) a measure of levels of oxygen radicals, and tissue chemiluminescence (CL) an index of antioxidant reserve in blood and pancreatic tissue. Male 5-6 weeks old ZDF and age match Zucker lean control (ZLC) rats were obtained from Charles River, St. Constant, Quebec, Canada.
Rats were tested for glucosuria to establish diabetes at 5-6 weeks before they were assigned to various groups. None of the rats had glucosuria at this age. […] At the end of the protocol, under anesthesia, blood samples were taken to measure serum glucose and MDA, and pancreas were removed to assess pancreatic MDA and antioxidant reserve.

[11] = Body weight of hypercholesterolemic rabbits (Example 4); assay type: in vivo, New Zealand White rabbits; settings: + 1% cholesterol
Method: as §1, §2

[12] = 0 month, + 1% cholesterol group
[13] = 0 month, control diet without cholesterol
[14] = 1 month, + 1% cholesterol, flaxseed 15% or SDG 15 mg/kg oral
[15] = 1 month, control diet without cholesterol, flaxseed 15% or SDG 15 mg/kg oral
[16] = 2 months, + 1% cholesterol, flaxseed 15% or SDG 15 mg/kg oral
[17] = 0 months, SDG 5 mg/kg or SDG (89% pure) 11.24 mg/kg group
[18] = 1 month, SDG 5 mg/kg or SDG (89% pure) 11.24 mg/kg, orally daily
[19] = 2 months, SDG 5 mg/kg or SDG (89% pure) 11.24 mg/kg, orally daily
[20] = 2 months, control diet without cholesterol, flaxseed 15% or SDG 15 mg/kg oral
[21] = SDG 22 mg/kg orally for 3 days + STZ 65 mg/kg i.v., 12 rats/group
[22] = SDG 44 mg/kg orally for 3 days + STZ 65 mg/kg i.v., 10 rats/group

Compound: CC(C)(Sc1cc(C(C)(C)C)c(O)c(C(C)(C)C)c1)Sc1cc(C(C)(C)C)c(O)c(C(C)(C)C)c1 [Probucol]
- reduction of hypercholesterolemic atherosclerosis ([1]; Probucol 0.5% in the diet (equivalent to 250 mg/Kg), 0.5% cholesterol diet): up to 43%
- total cholesterol in the bloodstream ([1]; Probucol 0.5% in the diet, 0.5% cholesterol diet): did not reduce the total cholesterol
- effect on reducing atherosclerosis ([1]; Probucol, depending upon the extent of the hypercholesterolemia): 15-45%

Compound: COc1cc(CC(COC2OC(CO)C(O)C(O)C2O)C(COC2OC(CO)C(O)C(O)C2O)Cc2ccc(O)c(OC)c2)ccc1O (stereo not drawn) [SDG, secoisolariciresinol diglucoside]
- Body weight [2, 12]: 1.25 ± 0.03 kg
- Body weight [2, 13]: 1.75 ± 0.02 kg
- Body weight [2, 14]: 1.98 ± 0.08 kg
- Body weight [2, 15]: 2.34 ± 0.04 kg
- Body weight [2, 16]: 2.35 ± 0.10 kg
- rats that developed diabetes ([3]; orally in drinking water, up to 120 days, untreated BBdp 72.7%): 21.4%
- prevention of the development of diabetes ([3]; orally in drinking water, vs untreated BBdp): 70.55%
- Pancreatic / serum MDA ([3]; both nondiabetic and diabetic, vs untreated BBdp): lower in the SDG-treated group in both nondiabetic and diabetic as compared to untreated BBdp rats
- serum glucose, rats that developed diabetes ([3]; compared with nondiabetic SDG-treated BBdp): higher than those not developing diabetes in this group
- onset of diabetes ([3]; rats that developed diabetes): delayed the onset of diabetes in ones that developed diabetes
- Pancreatic antioxidant reserve (Pancreatic-CL) ([3]; untreated BBdp vs control or SDG-treated group): slightly lower in the untreated group as compared to the control or SDG-treated group but were not significant
- reduction of hypercholesterolemic atherosclerosis and of total blood cholesterol [4]: accomplishes both
- Atherosclerotic plaques (% of total internal surface area) [5]: 0 % of total internal surface ar
- Serum HDL-C levels [6, 17]: 0.83 ± 0.08 mmol/L
- Serum LDL-C levels [6, 17]: 0.89 ± 0.14 mmol/L
- Serum Triglyceride levels [6, 17]: 1.30 ± 0.19 mmol/L
- Serum VLDL-C levels [6, 17]: 0.59 ± 0.09 mmol/L
- Total serum cholesterol levels [6, 17]: 2.31 ± 0.19 mmol/L
- Serum HDL-C levels [6, 18]: 0.76 ± 0.42 mmol/L
- Serum LDL-C levels [6, 18]: 75.98 ± 9.04 mmol/L
- Serum Triglyceride levels [6, 18]: 0.97 ± 0.16 mmol/L
- Serum VLDL-C levels [6, 18]: 0.44 ± 0.08 mmol/L
- Total serum cholesterol levels [6, 18]: 77.24 ± 7.22 mmol/L
- Serum HDL-C levels [6, 19]: 0.48 ± 0.10 mmol/L
- Serum LDL-C levels [6, 19]: 58.68 ± 9.69 mmol/L
- Serum Triglyceride levels [6, 19]: 0.87 ± 0.20 mmol/L
- Serum VLDL-C levels [6, 19]: 0.39 ± 0.09 mmol/L
- Total serum cholesterol levels [6, 19]: 59.61 ± 9.8 mmol/L
- Serum HDL-C levels [7, 12]: 0.62 ± 0.10 mmol/L
- Serum LDL-C levels [7, 12]: 1.09 ± 0.19 mmol/L
- Serum Triglyceride levels [7, 12]: 1.21 ± 0.09 mmol/L
- Serum VLDL-C levels [7, 12]: 0.55 ± 0.04 mmol/L
- Total serum cholesterol levels [7, 12]: 2.26 ± 0.25 mmol/L
- Serum HDL-C levels [7, 13]: 0.58 ± 0.09 mmol/L
- Serum LDL-C levels [7, 13]: 0.34 ± 0.09 mmol/L
- Serum Triglyceride levels [7, 13]: 1.10 ± 0.13 mmol/L
- Serum VLDL-C levels [7, 13]: 0.50 ± 0.06 mmol/L
- Total serum cholesterol levels [7, 13]: 1.42 ± 0.11 mmol/L
- Serum HDL-C levels [7, 14]: 1.30 ± 0.18 mmol/L
- Serum LDL-C levels [7, 14]: 66.26 ± 7.23 mmol/L
- Serum Triglyceride levels [7, 14]: 1.40 ± 0.17 mmol/L
- Serum VLDL-C levels [7, 14]: 0.64 ± 0.08 mmol/L
- Total serum cholesterol levels [7, 14]: 68.20 ± 7.41 mmol/L
- Serum HDL-C levels [7, 15]: 0.60 ± 0.06 mmol/L
- Serum LDL-C levels [7, 15]: 0.33 ± 0.06 mmol/L
- Serum Triglyceride levels [7, 15]: 0.63 ± 0.02 mmol/L
- Serum VLDL-C levels [7, 15]: 0.29 ± 0.01 mmol/L
- Total serum cholesterol levels [7, 15]: 1.22 ± 0.11 mmol/L
- Serum HDL-C levels [7, 16]: 1.20 ± 0.48 mmol/L
- Serum LDL-C levels [7, 16]: 43.25 ± 6.64 mmol/L
- Serum Triglyceride levels [7, 16]: 1.83 ± 0.35 mmol/L
- Serum VLDL-C levels [7, 16]: 0.83 ± 0.16 mmol/L
- Total serum cholesterol levels [7, 16]: 45.18 ± 6.68 mmol/L
- Serum HDL-C levels [7, 20]: 0.50 ± 0.00 mmol/L
- Serum LDL-C levels [7, 20]: 0.25 ± 0.04 mmol/L
- Serum Triglyceride levels [7, 20]: 0.60 ± 0.12 mmol/L
- Serum VLDL-C levels [7, 20]: 0.27 ± 0.02 mmol/L
- Total serum cholesterol levels [7, 20]: 1.12 ± 0.10 mmol/L
- Mean aortic blood pressure (mAo), ET-induced fall [8]: prevented the ET-induced fall in mAO up to 30 min
- Left ventricular MDA (LV-MDA), ET-induced increase ([8]; 3 hours): prevented the ET-induced increase in LV-MDA
- antioxidant reserve (LV-CL), ET-induced decrease ([8]; 3 hours): prevented the ET-induced decrease in antioxidant reserve
- # Rats Developing Diabetes [9, 21]: 2 rats
- percent of rats developing diabetes mellitus [9, 21]: 16.6%
- Plasma Glucose ([9]; SDG 22 mg/kg orally for 3 days + STZ): 9.63 ± 0.71 mmol/L
- preventing the development of diabetes, 44 mg/kg compared with 22 mg/kg ([9]; SDG 44 mg/kg): more effective than in the dose of 22 mg/kg
- # Rats Developing Diabetes [9, 22]: 1 rats
- percent of rats developing diabetes mellitus [9, 22]: 10%
- Plasma Glucose ([9]; SDG 44 mg/kg orally for 3 days + STZ): 10.01 ± 0.76 mmol/L
- plasma glucose levels compared with streptozotocin-treated group ([9]; SDG 22 and 44 mg/kg): much lower than those in streptozotocin-treated group
- prevention of the development of STZ-induced diabetes mellitus ([9]; SDG 22 and 44 mg/kg, overall): approximately 81%
- signs of diabetes [10]: showed no signs of diabetes
- Body weight [11, 17]: 1.47 ± 0.02 kg
- Body weight [11, 18]: 2.45 ± 0.04 kg

Compound: Vitamin E
- reduction of hypercholesterolemic atherosclerosis ([1]; Vitamin E 40 mg/kg, rabbits): up to 73%
- total blood cholesterol ([1]; Vitamin E 40 mg/kg, rabbits): without reducing the total blood cholesterol
